In patent US20240058265A1, “TREATMENT OF OCULAR DISEASES USING ENDOTHELIN RECEPTOR ANTAGONISTS” (Perfuse Therapeutics, Inc., priority 2021, published 2024):
In brackets after ≈: the same amount, converted by molar mass. Several values for one entry are separate records, joined by “and”; a condition that tells them apart may be missing. Identical values can stand only once. Like-named read-outs stand apart in the source and are kept apart here. Where no end group is shown, it is not given here.

Experiments:
[1] = Solubility (pH 2, pH 7, ethyl acetate); format: physicochemical
Text: (§1) In the above table, the physicochemical data, e.g., solubility, were obtained following standard protocols known in the field (see, e.g., Reis et al., Mini Rev Med Chem., 2010, 10(11):1071-6; Avdeef et al., Expert Opin Drug Metab Toxicol., 2005, 1(2):325-42; Bharate et al., Comb Chem High Throughput Screen., 2016, 19(6):461-9; and Jain et al., J Pharm Biomed Anal., 2013, 86:11-35.); and the biochemical data, i.e., potency for ETA/ETB, were obtained following the protocols known in the field (see, e.g., Kirkby et al., Br J Pharmacol., 2008, 153(6):1105-19; and Maguire et al., Br J Pharmacol., 2014, 171(24):5555-72.).

[2] = Permeability (PAMPA); format: in vitro ADME
Text: as §1

[3] = system: ETA/ETB receptor; conditions: cited from earlier work
[4] = Stability in solid state; format: physicochemical; conditions: 2 h@125° C.
Text: as §1

[5] = system: elevated IOP rat eye; assay: Morrison's rat model of glaucoma (RGC counts, PERG); format: in vivo, Brown Norway rats; conditions: topical eye drops 100 μg per dose, five days a week, four weeks
Text: Adult male and female retired breeder Brown Norway rats (approximate age groups of 8 to 11 months) were obtained from Envigo (Indianapolis, IN). Baseline IOP measurements and pattern electroretinogram (PERG) amplitudes were collected prior to the surgery for elevation of IOP (to ensure that the IOP and PERG amplitudes were in the expected range of values). IOP was elevated in one eye (left eye) of the rats, while the corresponding right eyes served as contralateral controls. The Morrison method to elevate IOP in rats was carried out by injection of 50 μL of hypertonic saline through the episcleral veins to sclerose the trabecular meshwork. IOP was measured twice a week throughout the entire duration of the experiment. […] After detecting an elevation of IOP for two consecutive days, topical administration of eye drops ([…] (100 μg,) per dose of the tested compounds in the IOP elevated eye) was commenced and carried out for five days a week for a total of four weeks. In the 4th week of treatment, PERG analysis was carried out and rats were sacrificed by an overdose of pentobarbital (fatal-Plus). Aqueous humor was collected from the rat eyes, frozen and shipped for analysis. Retinal flat mounts were prepared, immunostained with the RGC marker, Brn3a antibody and surviving RG-Cs were counted in two eccentricities (central and peripheral).
For this study, the Morrison's model was used to induce ocular hypertension in adult male retired breeder Brown Norway rats as previously described by. Morrison et al., (Morrison J C, Moore C G, Deppmeier L M, Gold B G, Meshul C K, Johnson E C. A rat model of chronic pressure-induced optic nerve damage. Exp Eye Res. 1997;64(1):85-96).
The immunostained retinal flat mounts were obtained to measure the retinal ganglion cell (RGC) counts. To obtain immunostained retinal flat mounts, the animals were euthanized after the treatments and then their eyes were enucleated. The eye cups were fixed overnight at 4° C. in 4% paraformaldehyde (PFA) and retinal flat mounts were prepared for collecting images. The retinal ganglion cell (RGC) counting was conducted using the images of immunostained retinal flat mounts. The images were uploaded to ImageJ, a photo editor designed for biology research (Rasband, 1997-2018) and the labeled retinal ganglion cells were counted manually in two eccentricities (central and peripheral).
Pattern ERG (PERG) was used to assess the RGC function. […] Briefly, PERG signals were acquired from a DTL-plus electrode placed on the lower part of the corneal surface and the PERG waves were analyzed using the EMWIN software (LKC). The difference between the amplitude of the major positive (P1) and negative (N2) waves were calculated to decipher the PERG amplitude.

[6] = Pharmacokinetics after topical or oral administration in the rat; format: in vivo, Brown Norway rats
Protocol: After the administrations, the animals (N=2) were euthanized at different time points (e.g. 4 and 8 hours) and tissues were collected for analysis. List of tissues collected include plasma, retina/retinal pigment epithelium (RPE)/choroid, vitreous humor and aqueous humor.

[7] = target: T1, ETA receptor (Homo sapiens, UniProt P25101); assay: Functional potency for ETA receptor; format: biochemical
T1 sequence (P25101 21-427): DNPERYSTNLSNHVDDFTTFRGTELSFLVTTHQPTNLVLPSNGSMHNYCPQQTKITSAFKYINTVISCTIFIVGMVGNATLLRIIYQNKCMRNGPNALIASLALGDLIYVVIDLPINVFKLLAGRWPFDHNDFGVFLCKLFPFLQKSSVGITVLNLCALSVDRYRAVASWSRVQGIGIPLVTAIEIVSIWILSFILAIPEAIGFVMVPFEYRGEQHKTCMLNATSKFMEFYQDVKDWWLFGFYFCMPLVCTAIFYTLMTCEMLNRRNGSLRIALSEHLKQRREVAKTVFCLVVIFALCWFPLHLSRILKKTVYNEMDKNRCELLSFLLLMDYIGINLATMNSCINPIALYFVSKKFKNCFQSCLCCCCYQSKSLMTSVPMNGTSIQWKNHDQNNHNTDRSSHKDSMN
Text: as §1

[8] = system: ET-1 induced vasospasm; assay: Rabbit ET-1 induced vasospasm model, retinal blood flow (OCT-A, FA); format: in vivo, rabbit (Oryctolagus cuniculus)
Protocol: Adult, male Dutch-belted rabbits were given a 20 μl intravitreal injection (IVT) of 0.5 μg of ET-1 followed by a 20 μl intravitreal injection of 10-100 μg Edonentan given 30 min after the ET-1 administration. IOP, optical coherence tomography—angiography (OCT-A), and fluorescein angiograms (FA) were performed at pre-specified time points (30, 45, 60, and 75 min) following ET-1 and Edonentan administration to assess retinal blood flow changes induced by ET-1+/−Edonentan. […] To evaluate the effect of retinal blood flow following intravitreally administered endothelin-1 (ET-1) followed by the antagonist Edonentan in the rabbit, rabbits (Oryctolagus cuniculus) were given a 20 μL intravitreal injection of ET-1 in the left eye followed by a 20 μL intravitreal injection of Edonentan at 2 (or 3) different doses (e.g. 0.1 μg, 0.5 μg, 2.5 μg). The pulse ox, tonometry, optical coherence tomography angiography (OCTA), fluorescein angiography (FA) and retinal leakage scoring were performed for evaluation.

[9] = Solubility of crystalline forms; format: physicochemical; conditions: room temperature, 24 hours
Protocol: The solubility described herein can be measured using the following procedure: • ii. Solubility Analysis Protocol • 1. No less than 2.0 mg samples are weighed into lower chamber of whatman miniuniprep vials (GE Healthcare). 450 μL of buffer was added into each chamber. • 2. Filter pistons of miniuniprep vials are placed and compressed to the position of the liquid level to allow for contact of buffer and compound with the filter during incubation. • 3. The samples are vortexed for 2 minutes followed by incubation at room temperature (about 25±2° C.) for 24 hours with shaking at 500 rpm. • 4. Miniunipreps are compressed to prepare the filtrates for injection into HPLC system. All vials are inspected for visible undissolved material before filtering and for leakage after filtering. • 5. Dilute supernatant with buffer by a factor of 100 folds to make diluents which are analyzed with HPLC.

[10] = Slurry conversion of crystalline forms (relative thermodynamic stability); format: physicochemical
Protocol: In an alternate method, 150 mg of Edonentan (Form 3) was added to a mixture of isopropanol and water (1 mL and 2 mL, respectively). The resulting slurry was stirred at 15° C. for 48 hours and then filtered.
In an alternate method, 200 mg of Edonentan (Form 1) was added to a mixture of isopropanol and water (1.3 mL and 2.6 mL, respectively). The resulting solution was heated to 80° C. and stirred for 24 h, then cooled and filtered.

[11] = system: laser-induced glaucoma eye; assay: Laser-induced glaucoma non-human primate, intraocular pressure after topical administration; format: in vivo, rhesus macaque, Macaca Mulatta; conditions: single dose 50 μL topical 0.5% in each eye, 120 minutes
Protocol: Non-human primates (rhesus macaque, Macaca Mulatta) were obtained for this study. One eye of each animal underwent induction of elevation of intraocular pressure (TOP) by repeated laser photocoagulation of the trabecular meshwork. Imaging sessions were repeated to monitor the optic nerve head (ONH) and retinal structural changes. A single dose of 0.5% Timolol or a single dose of 2 mg/mL Edonentan was topically administered to three non-human primates that have laser-induced glaucoma in their right eyes (OD) with 1-week wash-out in a randomized order.

With `CCCCCS(=O)(=O)N(CCC)CCN1C[C@H](c2ccc3c(c2)OCO3)[C@@H](C(=O)O)[C@@H]1c1ccc(OC)c(F)c1` [A-182086, (2R,3R,4S)-4-(2H-1,3-benzodioxol-5-yl)-2-(3-fluoro-4-methoxyphenyl)-1-[2-(N-propylpentane-1-sulfonamido)ethyl]pyrrolidine-3-carboxylic acid] the “Solubility in Ethyl Acetate (rating)” value ([1]; ethyl acetate) was “Good”, the solubility ([1]; ethyl acetate, organic solvent or mixture, read-out: Solubility in Ethyl Acetate) was > 10600 µg/mL and > 18400 µM and the solubility ([1]; pH 2, read-out: Solubility at pH 2) was 159.8 µM (≈ 92.5 µg/mL). The “Solubility at pH 7” value ([1]; pH 7, amorphous form) was 298.4 μM, the “Permeability (rating)” value [2] was “Mid-High” and the ETA/ETB selectivity [3] was 4 fold. The “Stability in Solid State (verdict)” value [4] was “unstable”, the “Stability in Solid State, remaining” value [4] was “about 87% remaining/” and the “RGC function (PERG)” value [5] was “maintained RGC function”. The “RGC loss (RGC counts, retinal flat mounts)” value [5] was “prevented RGC loss”, the “Detection in retina/RPE/choroid after oral administration” value ([6]; oral, 50 mg/kg) was “detectable” and the “Detection in retina/RPE/choroid, aqueous humor and vitreous humor” value ([6]; topical eye drop 100 μg, 4 and 8 hours) was “detected”. The “Functional potency for ETA and ETB receptors (rating)” value [7] was “High potency”, the “Specificity ETA vs ETB (rating)” value [7] was “Low specificity” and the “Fluorescein dye velocity as an index of retinal blood flow” value ([8]; healthy rabbits, 0.5 μg ET-1 and 10 μg antagonist IVT (FIG. 3)) was “improved to control levels”.

In the case of `Cc1onc(NS(=O)(=O)c2ccccc2-c2ccc(-c3ncco3)cc2CN(C)C(=O)CC(C)(C)C)c1C` [Form 1], the “Solubility pH 7.0 Phosphate Buffer” value [9] is reported as 264 μg/mL.

For `Cc1onc(NS(=O)(=O)c2ccccc2-c2ccc(-c3ncco3)cc2CN(C)C(=O)CC(C)(C)C)c1C` [Form 2], the “Solubility pH 7.0 Phosphate Buffer” value [9] was 35 μg/mL.

With `Cc1onc(NS(=O)(=O)c2ccccc2-c2ccc(-c3ncco3)cc2CN(C)C(=O)CC(C)(C)C)c1C` [Form 3] the “Solubility pH 7.0 Phosphate Buffer” value [9] was 251 μg/mL.

For `Cc1onc(NS(=O)(=O)c2ccccc2-c2ccc(-c3ncco3)cc2CN(C)C(=O)CC(C)(C)C)c1C` [Form 4], the “Relative thermodynamic stability of crystalline form” value ([10]; isopropanol and water, 80° C., 24 h) was “more thermodynamically stable than Form 1”, the “Relative thermodynamic stability of crystalline form” value ([10]; slurry in isopropanol and water, 15° C., 48 hours) was “more thermodynamically stable than Form 3” and the “Solubility pH 7.0 Phosphate Buffer” value [9] was 138 μg/mL.

For `CC(C)(C)NC[C@H](O)COc1nsnc1N1CCOCC1` [Timolol, reference compound], the “IOP reduction from pre-dose to post-dose” value ([11]; Control 1) was “about 20%” and the “IOP reduction from pre-dose to post-dose” value ([11]; Control 2) was “about 30%”.

With “ET-1: Endothelin-1, given intravitreally to induce vasospasm in rabbit retina (CSCSSLMDKECVYFCHLDIIW; ends and bridges not checked; cysteine pairing not given here; UniProt P05305 53-73, looked up) [reference compound]” the “Vasoconstriction in the retinal vascular beds” value ([8]; 0.5 μg ET-1 IVT, within 45 min) was “induced a clear vasoconstriction”.
